Reference: patent US9809597B2, “Ganciclovir derivatives for modulating innate and adaptive immunity and for use in immunotherapy” (The Board of Trustees of the Leland Stanford Junior …, priority 2015, dated 2017)

Legend:
[1] = tested on: BV-2 and primary microglia stimulated with IFNγ and LPS; assay: RT-PCR of inflammatory transcripts in IFNγ/LPS stimulated microglia; type: cell-based, mouse; conditions: 200 μM GCV, 24 hours
Experimental: BV-2 mouse microglia cells were grown in DMEM+10% FBS and THP-1 human monocyte cells were grown in RPMI-40+10% FBS+0.05 mM β-mercaptoethanol at 37° C., 5% CO2. Adherent cells were split using 1×TrypLE (Gibco). For cellular assays, cells were treated with the following concentrations of drugs as indicated in the DMEM without serum: 100-200 μM ganciclovir, 10 ng/ml IFNγ (R&D systems), 100 ng/ml LPS (Sigma-Aldrich), 1-10 μM Fludarabine (Selleckchem), 1 μM Ruxolitinib (Selleckchem), 1 μM TG-101348 (Selleckchem), 1 μM Amlexanox (Tocris bioscience) unless otherwise noted. All experiments were run in triplicates and replicated at least 3 times with cell lines and at least twice with primary microglia. Average data are shown for cell lines and representative data are shown for primary cells. Secreted signaling proteins were measured in supernatants from cultured cells stimulated with GCV and conditioned for 24 hours in the absence of serum using two independent Luminex arrays (Human Immune Monitoring Center, Stanford and Eve technologies, Canada). Nitrite assay was performed on conditioned culture supernatants of cells stimulated with drugs for 24 hours using the Griess Reagent System (Promega) according to manufacturer's instructions. To assess cellular viability, cell confluence was measured using an automated microscope (Cellavista; Roche). Mice were housed and bred according to the Institutional Animal Care and Use Committee guidelines. Primary microglia and astrocytes were isolated from P0-P3 C57BL/6 mouse pups. Cortices from pups were isolated, meninges removed and tissue was dissociated using a 25-gauge needle. Two cortices were plated on each poly-L-lysine coated T-75 flasks in DMEM/F12+10% FBS+1% penicillin/streptomycin. Microglia and astrocyte co-cultures were maintained for 3 weeks, after which microglia were isolated using CD11b magnetic beads (Miltenyi Biotec) according to the manufacturer's instructions. Isolated microglia were allowed to recover for 1-2 days and processed for cellular assays described above. RNA was isolated from cells using RNeasy mini kit from Qiagen. […] was converted to cDNA using SuperScript III reverse transcriptase kit (Life technologies). The cDNA was used to quantify specific targets using SYBR green in Roche Lightcycler 480. ΔΔCt values normalized against the experimental control to determine fold change in mRNA for each sample compared to untreated or vehicle treated control. β-actin or Ubc or both were used as housekeeping genes. Primer sequences were obtained from PrimerBank. Fold change is shown compared to the vehicle treated or untreated cells, unless otherwise noted.

BV-2 cells = assay: RT-PCR for CXCL10 and IFNβ transcripts in BV-2 cells; type: cell-based, mouse
Experimental: BV-2 mouse microglia cells were grown in DMEM+10% FBS and THP-1 human monocyte cells were grown in RPMI-40+10% FBS+0.05 mM β-mercaptoethanol at 37° C., 5% CO2. Adherent cells were split using 1×TrypLE (Gibco). For cellular assays, cells were treated with the following concentrations of drugs as indicated in the DMEM without serum: 100-200 μM ganciclovir, 10 ng/ml IFNγ (R&D systems), 100 ng/ml LPS (Sigma-Aldrich), 1-10 μM Fludarabine (Selleckchem), 1 μM Ruxolitinib (Selleckchem), 1 μM TG-101348 (Selleckchem), 1 μM Amlexanox (Tocris bioscience) unless otherwise noted. All experiments were run in triplicates and replicated at least 3 times with cell lines and at least twice with primary microglia. Average data are shown for cell lines and representative data are shown for primary cells. Secreted signaling proteins were measured in supernatants from cultured cells stimulated with GCV and conditioned for 24 hours in the absence of serum using two independent Luminex arrays (Human Immune Monitoring Center, Stanford and Eve technologies, Canada). Nitrite assay was performed on conditioned culture supernatants of cells stimulated with drugs for 24 hours using the Griess Reagent System (Promega) according to manufacturer's instructions. To assess cellular viability, cell confluence was measured using an automated microscope (Cellavista; Roche).
(§1) RNA was isolated from cells using RNeasy mini kit from Qiagen. DNased RNA was converted to cDNA using SuperScript III reverse transcriptase kit (Life technologies). The cDNA was used to quantify specific targets using SYBR green in Roche Lightcycler 480. ΔΔCt values normalized against the experimental control to determine fold change in mRNA for each sample compared to untreated or vehicle treated control. β-actin or Ubc or both were used as housekeeping genes. Primer sequences were obtained from PrimerBank. Fold change is shown compared to the vehicle treated or untreated cells, unless otherwise noted.

BV-2 microglia = assay: siRNA knockdown (STING, IRF3, Stat1, Jak2), then RT-PCR for CXCL10; type: cell-based, mouse
Experimental: Smartpool siRNAs against mouse targets were bought from Dharmacon and transfected in microglia cells using Viromer Blue from Lipocalyx at a concentration of 50 nM according to manufacturer's instructions. Drugs were added cells after 24 hours of transfection and assays done 24 hours after addition of drugs.
as §1

[2] = tested on: wildtype and STING^gt/gt mice with EAE; conditions: mouse model for multiple sclerosis, therapeutic doses equivalent to those in humans (Ding et al. 2014); cited from earlier work
[3] = BV-2 and primary microglia stimulated with IFNγ and LPS
[4] = IFNγ/LPS-stimulated STING^gt/gt primary microglia
[5] = BV-2 microglia, siRNA 24 hours, then 200 μM for 24 hours

Nc1nc(O)c2ncn(COC(CO)CO)c2n1 [GCV, Ganciclovir]
CCL2 transcript [1, 3]: almost complete transcriptional inhibition | iNOS transcript [1, 3]: almost complete transcriptional inhibition | iNOS and CCL2 transcripts in GCV treated STING^gt/gt microglia [1, 4]: higher | reduction of inflammatory markers in STING^gt/gt primary microglia [1, 4]: unable to do so | inflammatory markers in wildtype primary microglia ([1]; IFNγ/LPS-stimulated wildtype primary microglia): reduced | induction of CXCL10 mRNA on neutralization of IFNβ with an antibody (BV-2 cells; BV-2 cells, 200 μM with anti-IFNβ antibody, 4 hours): partly reduced | EC50 (BV-2 cells; Mus musculus, BV-2 microglia, dose response, read-out: EC50, increase of CXCL10 transcript): ~160 µM | induction of IFNβ transcript (BV-2 cells; microglia (BV-2, primary), 200 μM): induced | CXCL10 or IFNβ mRNA expression after siRNA knockdown of Stat1 and Jak2 or lack of Stat1 (BV-2 microglia; BV-2 cells (siRNA) or Stat1 knockout primary microglia, 200 μM): significantly reduced | capacity to induce CXCL10 after siRNA knock down of STING (BV-2 microglia; [5]): to a lesser extent | potential to induce CXCL10 mRNA after siRNA knockdown of IRF3 (BV-2 microglia; [5]): inhibited | disease course and pathology of EAE [2]: ameliorates the disease course and pathology
